≈ marks a conversion by molar mass, not a printed value. Read-outs that look alike come from different tables or passages of the source.
How the values were obtained:
[1] = system: Pseudomonas aeruginosa Tsuchijima; assay: In vitro antibacterial activity (MIC), Pseudomonas aeruginosa Tsuchijima; assay type: cell-based; conditions: read-out: minimum inhibitory concentration (MIC)
Excerpt: (§1) (MIC) (μg/ml) Method; Chemotherapy, 22(6), 1126 (1974)

[2] = system: Corynebacterium pyogenes C-21; assay: In vitro antibacterial activity (MIC), Corynebacterium pyogenes C-21; assay type: cell-based; conditions: Rhodococcus (subgen. Prescottella) equi
Excerpt: as §1

Shigella flexneri 2a = assay: In vitro antibacterial activity (MIC), Shigella flexneri 2a; assay type: cell-based; conditions: read-out: minimum inhibitory concentration (MIC)
Excerpt: as §1

[3] = system: Pseudomonas aeruginosa No. 12; assay: In vitro antibacterial activity (MIC), Pseudomonas aeruginosa No. 12; assay type: cell-based
Excerpt: as §1

Proteus mirabilis P-2381 = assay: In vitro antibacterial activity (MIC), Proteus mirabilis P-2381; assay type: cell-based
Excerpt: as §1

[4] = system: Escherichia coli NIHJ JC-2; assay: In vitro antibacterial activity (MIC), Escherichia coli NIHJ JC-2; assay type: cell-based
Excerpt: as §1

[5] = system: Serratia marcescens IFC 3736; assay: In vitro antibacterial activity (MIC), Serratia marcescens IFC 3736; assay type: cell-based
Excerpt: as §1

Proteus morganii Kono = assay: In vitro antibacterial activity (MIC), Proteus morganii Kono; assay type: cell-based; conditions: Morganella morganii, read-out: minimum inhibitory concentration (MIC)
Excerpt: as §1

[6] = system: Pseudomonas aeruginosa No. 12; assay: in vivo efficacy against systemic infection in mice, Pseudomonas aeruginosa No. 12; conditions: NO.12, in Mus musculus, po, 168 h
Protocol: Male mice (ddY) weighing about 20 g
(3) Pseudomonas aeruginosa No. 12;
(about 5 × 10^3 cells/mouse) of a bacterial
(§2) suspension in trypto-soy broth with 4% mucin.
(§3) Twice, about 5 minutes and 6 hours after infection.
The numerals in the table show ED50 (mg/kg). ED50 values were

[7] = system: Salmonella typhimurium 8-9; assay: In vitro antibacterial activity (MIC), Salmonella typhimurium 8-9; assay type: cell-based; conditions: Salmonella enterica, read-out: minimum inhibitory concentration (MIC)
Excerpt: as §1

[8] = system: Staphylococcus aureus 209P JC-1; assay: In vitro antibacterial activity (MIC), Staphylococcus aureus 209P JC-1; assay type: cell-based; conditions: read-out: minimum inhibitory concentration (MIC)
Excerpt: as §1

[9] = system: Staphylococcus aureus No. 50774; assay: in vivo efficacy against systemic infection in mice, Staphylococcus aureus No. 50774; conditions: NO.50774, in Mus musculus, po, 336 h
Protocol: Male mice (ddY) weighing about 20 g
Intravenous infection with (about
5 × 10^8 cells/mouse) of a bacterial
as §3

[10] = system: Klebsiella pneumoniae No. 13; assay: In vitro antibacterial activity (MIC), Klebsiella pneumoniae No. 13; assay type: cell-based
Excerpt: as §1

[11] = system: Staphylococcus aureus No. 50774; assay: In vitro antibacterial activity (MIC), Staphylococcus aureus No. 50774; assay type: cell-based
Excerpt: as §1

[12] = system: Shigella flexneri 4a P-330; assay: In vitro antibacterial activity (MIC), Shigella flexneri 4a P-330; assay type: cell-based; conditions: 4AP330, read-out: minimum inhibitory concentration (MIC)
Excerpt: as §1

[13] = system: Salmonella enteritidis No. 1891; assay: In vitro antibacterial activity (MIC), Salmonella enteritidis No. 1891; assay type: cell-based; conditions: Salmonella enterica, read-out: minimum inhibitory concentration (MIC)
Excerpt: as §1

[14] = system: Streptococcus pyogenes 65A; assay: In vitro antibacterial activity (MIC), Streptococcus pyogenes 65A; assay type: cell-based; conditions: read-out: minimum inhibitory concentration (MIC)
Excerpt: as §1

Escherichia coli P-5101 [15] = assay: In vitro antibacterial activity (MIC), Escherichia coli P-5101; assay type: cell-based
Excerpt: as §1

Escherichia coli P-140a = assay: In vitro antibacterial activity (MIC), Escherichia coli P-140a; assay type: cell-based; conditions: read-out: minimum inhibitory concentration (MIC)
Excerpt: as §1

[16] = system: Enterobacter cloacae P-2540; assay: In vitro antibacterial activity (MIC), Enterobacter cloacae P-2540; assay type: cell-based
Excerpt: as §1

in vivo = conditions: mouse, in vivo, po
Protocol: The number of dead mice was counted after 7 days, and the value of median lethal dose (LD50, mg/kg) was calculated in accordance with the Behrens-Kaerber method.

Escherichia coli P-5101 [17] = assay: in vivo efficacy against systemic infection in mice, Escherichia coli P-5101; conditions: P5101, in Mus musculus, po, 168 h
Protocol: Male mice (ddY) weighing about 20 g
Intraperitoneal infection with (about
9 × 10^6 cells/mouse) of a bacterial
as §2, §3

[18] = system: Streptococcus faecalis P-2473; assay: In vitro antibacterial activity (MIC), Streptococcus faecalis P-2473; assay type: cell-based; conditions: Enterococcus faecalis
Excerpt: as §1

[19] = system: Gram-positive and Gram-negative bacteria; assay: in vivo therapeutic efficacy against systemic infections in mice (overall); parameters: species or system mice (ddY); conditions: Gram-negative, particularly Pseudomonas aeruginosa
[20] = Pseudomonas aeruginosa Tsuchijima
[21] = C21, Corynebacterium pyogenes C-21, read-out: minimum inhibitory concentration (MIC)
[22] = Pseudomonas aeruginosa No. 12, read-out: minimum inhibitory concentration (MIC)
[23] = P2381, Proteus mirabilis P-2381, read-out: minimum inhibitory concentration (MIC)
[24] = NIHJJC2, Escherichia coli NIHJ JC-2, read-out: minimum inhibitory concentration (MIC)
[25] = Serratia marcescens, IFC3736, read-out: minimum inhibitory concentration (MIC)
[26] = Staphylococcus aureus 209P JC-1
[27] = Klebsiella pneumoniae, NO.13, read-out: minimum inhibitory concentration (MIC)
[28] = Staphylococcus aureus No. 50774, read-out: minimum inhibitory concentration (MIC)
[29] = Salmonella enteritidis No. 1891
[30] = Escherichia coli, P5101, read-out: minimum inhibitory concentration (MIC)
[31] = P2540, Enterobacter cloacae P-2540, read-out: minimum inhibitory concentration (MIC)
[32] = P2473, Streptococcus faecalis P-2473, read-out: minimum inhibitory concentration (MIC)
[33] = Klebsiella pneumoniae No. 13, read-out: minimum inhibitory concentration (MIC)
[34] = Escherichia coli, NIHJJC2, read-out: minimum inhibitory concentration (MIC)
[35] = Staphylococcus aureus, NO.50774, read-out: minimum inhibitory concentration (MIC)
[36] = Enterobacter cloacae, P2540, read-out: minimum inhibitory concentration (MIC)
[37] = P2473, read-out: minimum inhibitory concentration (MIC)

SMILES | MIC [1, 20] | MIC [2, 21] | MIC (Shigella flexneri 2a) | MIC [3, 22] | MIC (Proteus mirabilis P-2381; [23]) | MIC [4, 24] | MIC [5, 25] | MIC (Proteus morganii Kono) | ED50 [6] | MIC ([7]; Salmonella typhimurium 8-9) | MIC [8, 26] | ED50 [9] | MIC [10, 27] | MIC [11, 28] | MIC [12] | MIC [13, 29] | MIC ([14]; Streptococcus pyogenes 65A) | MIC (Escherichia coli P-5101 [15]; [30]) | MIC (Escherichia coli P-140a; Escherichia coli) | ED50 (Escherichia coli P-5101 [17]) | other results
CCn1cc(C(=O)O)c(=O)c2cc(Cl)c(N3CCNCC3)nc21.Cl [Compound 3, 6-Chloro-1-ethyl-1,4-dihydro-4-oxo-7-(1-piperazinyl)-1,8-naphthyridine-3-carboxylic acid hydrochloride] | 6.25 µg/mL | 6.25 µg/mL | 0.78 µg/mL | 6.25 µg/mL | 3.13 µg/mL | 0.78 µg/mL | 1.56 µg/mL | 1.56 µg/mL | 58.6 mg/kg | 0.39 µg/mL | 3.13 µg/mL | ~90 mg/kg | 1.56 µg/mL | 6.25 µg/mL | 1.56 µg/mL | 0.39 µg/mL | 12.5 µg/mL | 0.39 µg/mL | 0.39 µg/mL | 6.5 mg/kg | MIC [16, 31]: 0.78 µg/mL; LD50 at 168 h (in vivo): > 2000 mg/kg; MIC [18, 32]: 25 µg/mL
C=Cn1cc(C(=O)O)c(=O)c2cc(Cl)c(N3CCNCC3)nc21 [Compound 4, 6-Chloro-1,4-dihydro-4-oxo-7-(1-piperazinyl)-1-vinyl-1,8-naphthyridine-3-carboxylic acid] | 1.56 µg/mL (≈ 4.66 µM) | 6.25 µg/mL (≈ 18.7 µM) | 0.2 µg/mL (≈ 0.597 µM) | 1.56 µg/mL (≈ 4.66 µM) | 0.78 µg/mL (≈ 2.33 µM) | 0.2 µg/mL (≈ 0.597 µM) |  |  | 18.5 mg/kg | 0.2 µg/mL (≈ 0.597 µM) | 3.13 µg/mL (≈ 9.35 µM) | ~100 mg/kg |  | 6.25 µg/mL (≈ 18.7 µM) | 0.2 µg/mL (≈ 0.597 µM) | 0.2 µg/mL (≈ 0.597 µM) | 6.25 µg/mL (≈ 18.7 µM) |  |  | 4.8 mg/kg | MIC ([5]; IFC3736, Serratia marcescens IFC 3736, read-out: minimum inhibitory concentration (MIC)): 0.78 µg/mL (≈ 2.33 µM); MIC (Proteus morganii Kono; Proteus morganii Kono): 0.2 µg/mL (≈ 0.597 µM); MIC [10, 33]: 0.39 µg/mL (≈ 1.17 µM); MIC (Escherichia coli P-5101 [15]; P5101, Escherichia coli P-5101, read-out: minimum inhibitory concentration (MIC)): 0.1 µg/mL (≈ 0.299 µM); MIC (Escherichia coli P-140a; P140A, Escherichia coli P-140a): 0.1 µg/mL (≈ 0.299 µM); MIC [16, 31]: 0.2 µg/mL (≈ 0.597 µM); LD50 at 168 h (in vivo): > 2000 mg/kg; MIC [18, 32]: 12.5 µg/mL (≈ 37.3 µM)
CCn1cc(C(=O)O)c(=O)c2ccc(C)nc21 [E, 1-Ethyl-1,4-dihydro-7-methyl-4-oxo-1,8-naphthyridine-3-carboxylic acid] |  |  | 6.25 µg/mL (≈ 26.9 µM) |  |  |  | 6.25 µg/mL (≈ 26.9 µM) | 6.25 µg/mL (≈ 26.9 µM) | > 200 mg/kg |  |  | > 800 mg/kg | 12.5 µg/mL (≈ 53.8 µM) |  |  |  |  | 3.13 µg/mL (≈ 13.5 µM) |  | 29.2 mg/kg | MIC ([1]; Pseudomonas aeruginosa): 200 µg/mL (≈ 861 µM); MIC ([2]; C21, read-out: minimum inhibitory concentration (MIC)): > 200 µg/mL; MIC ([3]; Pseudomonas aeruginosa, NO.12, read-out: minimum inhibitory concentration (MIC)): 200 µg/mL (≈ 861 µM); MIC [4, 34]: 12.5 µg/mL (≈ 53.8 µM); MIC ([7]; TYPHIMURIUM): 3.13 µg/mL (≈ 13.5 µM); MIC ([8]; Staphylococcus aureus, 209P): 100 µg/mL (≈ 431 µM); therapeutic effects in vivo against Gram-negative bacteria, relative to compounds 1, 1' and 2 [19]: clearly inferior; MIC [11, 35]: 50 µg/mL (≈ 215 µM); MIC ([13]; ENTERITIDIS): 3.13 µg/mL (≈ 13.5 µM); MIC ([14]; Streptococcus pyogenes, 65A): > 200 µg/mL; MIC [16, 36]: 6.25 µg/mL (≈ 26.9 µM); MIC [18, 37]: > 200 µg/mL
CCn1cc(C(=O)O)c(=O)c2cnc(N3CCNCC3)nc21 [F, 8-Ethyl-5,8-dihydro-5-oxo-2-(1-piperazinyl)pyrido[2,3-d] pyrimidine-6-carboxylic acid] | 12.5 µg/mL (≈ 41.2 µM) | 25 µg/mL (≈ 82.4 µM) | 3.13 µg/mL (≈ 10.3 µM) | 25 µg/mL (≈ 82.4 µM) |  |  | 3.13 µg/mL (≈ 10.3 µM) | 3.13 µg/mL (≈ 10.3 µM) | 99.5 mg/kg |  | 12.5 µg/mL (≈ 41.2 µM) | 215 mg/kg |  |  | 1.56 µg/mL (≈ 5.14 µM) |  |  | 1.56 µg/mL (≈ 5.14 µM) | 1.56 µg/mL (≈ 5.14 µM) | 21.2 mg/kg | MIC (Proteus mirabilis P-2381; Proteus mirabilis, P2381, read-out: minimum inhibitory concentration (MIC)): 3.13 µg/mL (≈ 10.3 µM); MIC [4, 34]: 1.56 µg/mL (≈ 5.14 µM); MIC ([7]; TYPHIMURIUM): 1.56 µg/mL (≈ 5.14 µM); MIC [10, 33]: 6.25 µg/mL (≈ 20.6 µM); MIC [11, 35]: 25 µg/mL (≈ 82.4 µM); MIC ([13]; ENTERITIDIS): 1.56 µg/mL (≈ 5.14 µM); MIC ([14]; Streptococcus pyogenes, 65A): 200 µg/mL (≈ 659 µM); MIC [16, 36]: 1.56 µg/mL (≈ 5.14 µM); MIC [18, 37]: 200 µg/mL (≈ 659 µM)
